The subject of experiment [1] is Hepatitis B virus. In words: Inhibition of wild type HBV transfected in human hepatoblastoma 2.2.15 cells at 10 ug/mL. Conditions: HepG2 2.2.15. The format is functional.
Experiment [2] has as its system Hepatitis B virus. In words: Inhibition of HBV L180M/ M204V mutant transfected in D88 cell line at 10 ug/mL. Format: functional.
The test system of experiment [3] is Hepatitis B virus. In words: Inhibition of HBV M204I mutant transfected in B1 cell line. The format is functional, organism-based.
Experiment [4] concerns Hepatitis B virus. In words: Inhibition of wild type HBV transfected in human hepatoblastoma 2.2.15 cells. As to conditions: HepG2 2.2.15. Format: functional, organism-based.
The test system of experiment [5] is Hepatitis B virus. In words: Inhibition of HBV M204I mutant transfected in B1 cell line at 10 ug/mL. The format is functional.
The test system of experiment [6] is Hepatitis B virus. In words: Inhibition of HBV L180M/ M204V mutant transfected in D88 cell line. Format: functional, organism-based.
In experiment [7] the test system is Duck hepatitis B virus. In words: Inhibition of duck HBV transfected in primary duck hepatocytes. The format is functional, organism-based. As to conditions: Hepatocyte.
A further experiment concerns Vero. In words: Cytotoxicity against Vero cell by MTT assay. Format: functional. Conditions: Chlorocebus sabaeus. A general note: Formazan colour is commonly taken as a measure of viable cells.
For experiment [8], the system named is Duck hepatitis B virus. In words: Inhibition of duck HBV transfected in primary duck hepatocytes at 10 ug/mL. Format: functional. Conditions: Hepatocyte.
The next experiment relates to HepG2. In words: Cytotoxicity against HepG2 cell by MTT assay. The format is functional. As to conditions: Homo sapiens.
For a further experiment, the system named is West Nile virus. In words: Inhibitory activity against West Nile virus. The format is functional, organism-based.

For 17 compounds, inhibition, EC50 and CC50 results are on record in ChEMBL document CHEMBL1139011, “Inhibition of hepatitis B virus (HBV) replication by pyrimidines bearing an acyclic moiety: effect on wild-type and mutant HBV” (J Med Chem, 2006).

SMILES strings stand for the structures. pEC50: −log10 of the molar value.

For `O=c1[nH]c(=O)n(COCCO)cc1Cl`, the inhibition (commonly the share of the control response that was lost under treatment) at 10 µg/mL was determined as 82% in the experiment with Hepatitis B virus [1], 70% with Hepatitis B virus [2], 69% in the experiment with Hepatitis B virus [5] and 94% with Duck hepatitis B virus [8]. For the same compound, the negative-log EC50 (pEC50) (commonly −log10 of the EC50, conventionally taken in molar units) with Hepatitis B virus [3] was 5.35; in the experiment on Hepatitis B virus [4], 5.35; in the experiment with Hepatitis B virus [6], 5.35; in the experiment with Duck hepatitis B virus [7] it was 6.40. The CC50 in the experiment with Vero and with HepG2 was above 454 µM in each case.

For `O=c1[nH]c(=O)n(COCCO)cc1C(F)(F)F`, the inhibition at 10 µg/mL came to 55% in the experiment with Hepatitis B virus [1], 50% with Hepatitis B virus [2], 53% in the experiment with Hepatitis B virus [5] and 76% with Duck hepatitis B virus [8]. Further, the pEC50 with Hepatitis B virus [3] was 4.41; in the experiment with Hepatitis B virus [4], 4.71; in the experiment with Hepatitis B virus [6] it was 4.41; in the experiment with Duck hepatitis B virus [7] it was 5.41. In addition, the CC50 with Vero and in the experiment on HepG2 was above 393 µM in each case.

For the compound `O=c1[nH]c(=O)n(COCCO)cc1I`, the pEC50 in the experiment on Duck hepatitis B virus [7] was 4.49. Further, the CC50 in the experiment with Vero and with HepG2 was above 320 µM in each case. This compound returned an inhibition at 10 µg/mL in the experiment with Duck hepatitis B virus [8] of 50%.

On to `Cc1c(I)c(=O)[nH]c(=O)n1COCCO`, for which the inhibition at 10 µg/mL was found to be 53% with Hepatitis B virus [1], 25% in the experiment with Hepatitis B virus [2], 30% in the experiment with Hepatitis B virus [5] and 51% in the experiment on Duck hepatitis B virus [8]. For the same compound, the pEC50 in the experiment on Hepatitis B virus [4] and with Duck hepatitis B virus [7] was 4.51 throughout. Besides, the CC50 in the experiment on Vero and in the experiment with HepG2 was above 306 µM each time.

`O=c1[nH]c(=O)n(COCCO)cc1CO`: the inhibition at 10 µg/mL in the experiment with Hepatitis B virus [1] was 50%; with Hepatitis B virus [2], 30%; with Hepatitis B virus [5], 0%; in the experiment on Duck hepatitis B virus [8], 55%. Besides, the results for the negative logarithm of the EC50 (pEC50) in the experiment with Hepatitis B virus [4] and with Duck hepatitis B virus [7] were 4.62 and 4.32, respectively. Moreover, the cytotoxic concentration (CC50) in the experiment with Vero and with HepG2 was above 476 µM in each case.

Consider `CCOC(=O)c1cn(COCCO)c(=S)[nH]c1=O`, for which the inhibition at 10 µg/mL in the experiment with Hepatitis B virus [1] is 50%; with Hepatitis B virus [2] it was 0%; in the experiment with Hepatitis B virus [5], 20%; in the experiment on Duck hepatitis B virus [8], 53%. The results for the pEC50 with Hepatitis B virus [4] and in the experiment on Duck hepatitis B virus [7] were 4.74 and 4.44, respectively. For the same compound, the CC50 in the experiment with Vero and with HepG2 was above 364 µM throughout.

Take `O=c1ccn(COCCO)c(=S)[nH]1`: the inhibition at 10 µg/mL came to 42% in the experiment on Hepatitis B virus [1], 0% with Hepatitis B virus [2], 30% with Hepatitis B virus [5] and 46% with Duck hepatitis B virus [8]. For the same compound, the negative-log EC50 (pEC50) in the experiment with Hepatitis B virus [4] and in the experiment on Duck hepatitis B virus [7] was below 4.31 in each case. Besides, the CC50 in the experiment with Vero and with HepG2 was above 495 µM in each case.

As to `Cc1cc(=O)[nH]c(=O)n1COCCO`, the inhibition at 10 µg/mL in the experiment with Hepatitis B virus [1] stood at 55%; in the experiment on Hepatitis B virus [2], 0%; in the experiment with Hepatitis B virus [5], 30%; in the experiment with Duck hepatitis B virus [8], 60%. The pEC50 with Hepatitis B virus [4] and in the experiment on Duck hepatitis B virus [7] was 4.60 each time. Besides, the CC50 in the experiment with Vero and in the experiment with HepG2 was above 500 µM each time.

For the compound `Nc1cn(COCCO)c(=O)[nH]c1=O`, the inhibition at 10 µg/mL in the experiment with Hepatitis B virus [1] was found to be 50%; in the experiment with Hepatitis B virus [2], 30%; in the experiment with Hepatitis B virus [5], 30%; with Duck hepatitis B virus [8] it was 65%. Besides, the pEC50 in the experiment with Hepatitis B virus [4] was 4.30; in the experiment on Duck hepatitis B virus [7], 5.30. The CC50 in the experiment on Vero and in the experiment on HepG2 was above 497 µM each time.

In the case of `O=c1[nH]c(=O)n(COCCO)cc1Br`, the inhibition at 10 µg/mL in the experiment on Hepatitis B virus [1] is 60%; in the experiment with Hepatitis B virus [2] it was 73%; in the experiment on Hepatitis B virus [5] it was 67%; in the experiment with Duck hepatitis B virus [8], 89%. Moreover, the negative-log EC50 (pEC50) in the experiment on Hepatitis B virus [3] was 4.73; with Hepatitis B virus [4], 4.73; with Hepatitis B virus [6], 5.43; with Duck hepatitis B virus [7], 5.43. Also, the CC50 with Vero and in the experiment on HepG2 was above 377 µM in each case.

In the case of `O=c1[nH]c(=O)n(COCCO)cc1[N+](=O)[O-]`, the inhibition at 10 µg/mL with Hepatitis B virus [1] was 54%; in the experiment on Hepatitis B virus [2] it was 0%; in the experiment with Hepatitis B virus [5], 30%; in the experiment with Duck hepatitis B virus [8], 53%. The negative-log EC50 (pEC50) with Hepatitis B virus [4] is 4.36; in the experiment with Duck hepatitis B virus [7], 4.36; with West Nile virus, below 3.87. In addition, the CC50 in the experiment on Vero and in the experiment on HepG2 was above 432 µM in each case.

Turning to `COC(=O)c1cc(=O)[nH]c(=O)n1COCCO`, the inhibition at 10 µg/mL with Hepatitis B virus [1] amounted to 60%; in the experiment with Hepatitis B virus [2], 0%; in the experiment with Hepatitis B virus [5], 0%; with Duck hepatitis B virus [8], 56%. The pEC50 in the experiment with Hepatitis B virus [4] and in the experiment with Duck hepatitis B virus [7] was 4.39 each time. In addition, the CC50 with Vero and with HepG2 was above 409 µM each time.

With `O=c1cnn(COCCO)c(=O)[nH]1`, the inhibition at 10 µg/mL in the experiment on Hepatitis B virus [1] and in the experiment on Duck hepatitis B virus [8] was 25% in each case. Further, the negative-log EC50 (pEC50) with Hepatitis B virus [4] and with Duck hepatitis B virus [7] was below 4.28 throughout. The CC50 in the experiment with Vero and with HepG2 was above 534 µM each time.

On to `CCc1cn(COCCO)c(=S)[nH]c1=O`, for which the inhibition at 10 µg/mL in the experiment on Hepatitis B virus [1] was 40%; in the experiment with Hepatitis B virus [2], 40%; with Hepatitis B virus [5], 20%; in the experiment with Duck hepatitis B virus [8] it was 45%. The negative-log EC50 (pEC50) in the experiment with Hepatitis B virus [4], in the experiment on Hepatitis B virus [6] and with Duck hepatitis B virus [7] was below 4.32 throughout. Besides, the CC50 in the experiment on Vero and in the experiment on HepG2 was above 478 µM throughout.

In the case of `Cc1c([N+](=O)[O-])c(=O)[nH]c(=O)n1COCCO`, the inhibition at 10 µg/mL with Hepatitis B virus [1] is 60%; with Hepatitis B virus [2] it was 20%; in the experiment on Hepatitis B virus [5], 25%; with Duck hepatitis B virus [8], 68%. The pEC50 in the experiment on Hepatitis B virus [4] and with Duck hepatitis B virus [7] was 4.69 throughout. The CC50 in the experiment on Vero and with HepG2 was above 408 µM throughout.

On to `Nc1nc(NC2CC2)c2ncn([C@H]3C=C[C@@H](CO)C3)c2n1` [ABACAVIR], for which the inhibition at 10 µg/mL in the experiment with Hepatitis B virus [2] worked out at 72%; in the experiment on Hepatitis B virus [5] it was 80%. For the same compound, the pEC50 in the experiment on Hepatitis B virus [3] and in the experiment on Hepatitis B virus [6] was 5.47 throughout.

With `Nc1ccn([C@@H]2CS[C@H](CO)O2)c(=O)n1` [LAMIVUDINE], the inhibition at 10 µg/mL in the experiment on Hepatitis B virus [1] is 88%; with Hepatitis B virus [2], 30%; in the experiment on Hepatitis B virus [5] it was 45%; with Duck hepatitis B virus [8], 96%. The negative logarithm of the EC50 (pEC50) with Hepatitis B virus [3] is below 4.36; with Hepatitis B virus [4], 5.68; in the experiment on Duck hepatitis B virus [7] it was 7.40.
